Results: patent US20060035920A1, “Chk-1 inhibitors” (Millennium Pharmaceuticals, Inc., priority 2004, published 2006)

Biological target: T1, Recombinant human Chk1 (GST-Chk1) (Homo sapiens, UniProt O14757)
T1 construct: made in house; host or cells: insect cells (baculovirus, Bac-to-Bac system)
T1 sequence (O14757 1-476): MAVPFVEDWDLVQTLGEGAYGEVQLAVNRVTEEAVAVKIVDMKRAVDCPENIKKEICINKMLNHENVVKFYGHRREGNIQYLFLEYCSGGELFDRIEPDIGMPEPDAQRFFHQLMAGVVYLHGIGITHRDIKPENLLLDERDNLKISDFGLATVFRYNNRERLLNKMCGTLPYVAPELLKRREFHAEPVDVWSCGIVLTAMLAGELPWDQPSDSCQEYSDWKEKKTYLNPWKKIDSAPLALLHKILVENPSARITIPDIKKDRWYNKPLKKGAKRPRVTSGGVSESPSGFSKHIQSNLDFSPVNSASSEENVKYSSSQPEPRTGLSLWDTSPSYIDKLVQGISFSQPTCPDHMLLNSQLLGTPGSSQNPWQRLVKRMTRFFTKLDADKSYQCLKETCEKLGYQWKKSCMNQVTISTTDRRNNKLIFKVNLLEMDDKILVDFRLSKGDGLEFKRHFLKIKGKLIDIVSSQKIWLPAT
Assay: Chk1 DELFIA Kinase Assay
Format: biochemical
Method: Recombinant human Chk1 was expressed as a fusion protein with glutathione S-transferase at the amino-terminus (GST-Chk1) using standard baculovirus vectors and (Bac-to-Bac®) insect cell expression system purchased from GIBCO™ Invitrogen. Recombinant protein expressed in insect cells was purified using glutathione sepharose (Amersham Biotech) using standard procedures described by the manufacturer.
Chk1 DELFIA® Kinase Assay:
Assays (25 μL) utilized 2 nM GST-Chk1 containing 10 mM Tris, pH 7.5, 20% glycerol, 50 mM sodium chloride (NaCl), 0.01% Surfact-Amps® 20, 1 μM peptide stubstrate (Biotin-GLYRSPSMPEN-amide) (SEQ ID NO: 2), 01.% BSA, 2 mM DTT, 4% DMSO, 600 μM ATP, 10 mM MgCl2 and reacted for 50 minutes at room temperature. Reactions were terminated with 100 μL of Stop buffer containing 1% BSA, 10 mM Tris, pH 8.0, 150 mM NaCl, 100 mM EDTA. Stopped reactions (100 μL) were transferred to 96 well NeutrAvidin plates (Pierce) to capture the biotin-peptide substrate during a 30 minute room temperature incubation. Wells were washed and reacted with 100 μL PerkinElmer Wallac Assay Buffer containing 21.5 ng/ml anti-phospho-Ser216-Cdc25c rabbit polyclonal antibody from Cell Signaling Technology (Beverly, Mass.) and 292 ng/ml europium labeled anti-rabbit-IgG for 1 hour at room temperature. Wells were washed and europium released from the bound antibody by addition of Enhancement Solution (100 μL) (PerkinElmer Wallac) and detected using a Perkin Elmer Wallac Envison™ 2100 multilabel reader using standard manufacturer settings.

[1] = GST-Chk1 in vitro kinase assay, bound given in μM
[2] = GST-Chk1 kinase assay, bound given in nM

## CCn1c(=O)c2c(C)[nH]nc2c2cc(-c3cnn(C)c3)ccc21 [Compound I-51, 5-ethyl-3-methyl-8-(1-methyl-1H-pyrazol-4-yl)-2,5-dihydro-4H-pyrazolo[4,3-c]quinolin-4-one]
[1]
  IC50: < 1 µM
[2]
  IC50: > 0.5 µM

## CCn1c(=O)c2c(C)[nH]nc2c2cc(C#CCN(C(C)C)C(C)C)ccc21 [Compound I-36, 8-[3-(diisopropylamino)prop-1-yn-1-yl]-5-ethyl-3-methyl-2,5-dihydro-4H-pyrazolo[4,3-c]quinolin-4-one]
[2]
  IC50: < 0.5 µM

## CCCn1c(=O)c2c(C)[nH]nc2c2cc(C#CCN3CCCC3)ccc21 [Compound I-19, 3-methyl-5-propyl-8-(3-pyrrolidin-1-ylprop-1-yn-1-yl)-2,5-dihydro-4H-pyrazolo[4,3-c]quinolin-4-one]
[2]
  IC50: < 0.5 µM

## CCN(CC)CCc1ccc(-c2ccc3c(c2)c2n[nH]c(C)c2c(=O)n3CC)s1 [Compound I-82, 8-{5-[2-(diethylamino)ethyl]-2-thienyl}-5-ethyl-3-methyl-2,5-dihydro-4H-pyrazolo[4,3-c]quinolin-4-one]
[2]
  IC50: < 0.5 µM

## CCn1c(=O)c2c(C)[nH]nc2c2cc(/C=C/CN(C)Cc3ccccc3)ccc21 [Compound I-45, 8-{(1E)-3-[benzyl(methyl)amino]prop-1-en-1-yl}-5-ethyl-3-methyl-2,5-dihydro-4H-pyrazolo[4,3-c]quinolin-4-one]
[2]
  IC50: < 0.5 µM

## COCCn1c(=O)c2c(C)[nH]nc2c2cc(C#CCN3CCCC3)ccc21 [Compound I-5, 5-(2-methoxyethyl)-3-methyl-8-(3-pyrrolidin-1-ylprop-1-yn-1-yl)-2,5-dihydro-4H-pyrazolo[4,3-c]quinolin-4-one]
[2]
  IC50: < 0.5 µM

## CCn1c(=O)c2c(C)[nH]nc2c2cc(-c3ccc(CN4CC[C@H](O)C4)s3)ccc21 [Compound I-83, 5-ethyl-8-(5-{[(3S)-3-hydroxypyrrolidin-1-yl]methyl}-2-thienyl)-3-methyl-2,5-dihydro-4H-pyrazolo[4,3-c]quinolin-4-one]
[2]
  IC50: < 0.5 µM

## Cc1[nH]nc2c1c(=O)n(CC(F)F)c1ccc(C#CCN3CCCC3)cc21 [Compound I-4, 5-(2,2-difluoroethyl)-3-methyl-8-(3-pyrrolidin-1-ylprop-1-yn-1-yl)-2,5-dihydro-4H-pyrazolo[4,3-c]quinolin-4-one]
[2]
  IC50: < 0.5 µM

## CCn1c(=O)c2c(C)[nH]nc2c2cc(C#CCN3CCOCC3)ccc21 [Compound I-7, 5-ethyl-3-methyl-8-(3-morpholin-4-ylprop-1-yn-1-yl)-2,5-dihydro-4H-pyrazolo[4,3-c]quinolin-4-one]
[2]
  IC50: < 0.5 µM

## CCn1c(=O)c2c(C)[nH]nc2c2cc(C#CCN3CCN(C)CC3)ccc21 [Compound I-8, 5-ethyl-3-methyl-8-[3-(4-methylpiperazin-1-yl)prop-1-yn-1-yl]-2,5-dihydro-4H-pyrazolo[4,3-c]quinolin-4-one]
[2]
  IC50: < 0.5 µM

## Cc1[nH]nc2c1c(=O)n(CC(C)C)c1ccc(C#CCN3CCCC3)cc21 [Compound I-16, 5-isobutyl-3-methyl-8-(3-pyrrolidin-1-ylprop-1-yn-1-yl)-2,5-dihydro-4H-pyrazolo[4,3-c]quinolin-4-one]
[2]
  IC50: < 0.5 µM

## CCn1c(=O)c2c(C)[nH]nc2c2cc(CCCN3CCCC3)ccc21 [Compound I-54, 5-ethyl-3-methyl-8-(3-pyrrolidin-1-ylpropyl)-2,5-dihydro-4H-pyrazolo[4,3-c]quinolin-4-one]
[1]
  IC50: < 1 µM
[2]
  IC50: > 0.5 µM

## CCn1c(=O)c2c(C)[nH]nc2c2cc(C#CC(C)(C)NC(C)(C)C)ccc21 [Compound I-39, 8-[3-(tert-butylamino)-3-methylbut-1-yn-1-yl]-5-ethyl-3-methyl-2,5-dihydro-4H-pyrazolo[4,3-c]quinolin-4-one]
[2]
  IC50: < 0.5 µM

## CCn1c(=O)c2c(C)[nH]nc2c2cc(-c3ccc(CN4CCCC4)s3)ccc21 [Compound I-53, 5-ethyl-3-methyl-8-[5-(pyrrolidin-1-ylmethyl)-2-thienyl]-2,5-dihydro-4H-pyrazolo[4,3-c]quinolin-4-one]
[2]
  IC50: < 0.5 µM

## CCn1c(=O)c2c(C)[nH]nc2c2cc(C#CC(C)(C)N)ccc21 [Compound I-15, 8-(3-amino-3-methylbut-1-yn-1-yl)-5-ethyl-3-methyl-2,5-dihydro-4H-pyrazolo[4,3-c]quinolin-4-one]
[2]
  IC50: < 0.5 µM

## Cc1[nH]nc2c1c(=O)n(CC(F)(F)F)c1ccc(C#CCN3CCCC3)cc21 [Compound I-20, 3-methyl-8-(3-pyrrolidin-1-ylprop-1-yn-1-yl)-5-(2,2,2-trifluoroethyl)-2,5-dihydro-4H-pyrazolo[4,3-c]quinolin-4-one]
[2]
  IC50: < 0.5 µM

## CCN(CC)C/C=C/c1ccc2c(c1)c1n[nH]c(C)c1c(=O)n2CC [Compound I-43, 8-[(1E)-3-(diethylamino)prop-1-en-1-yl]-5-ethyl-3-methyl-2,5-dihydro-4H-pyrazolo[4,3-c]quinolin-4-one]
[2]
  IC50: < 0.5 µM

## Cc1[nH]nc2c1c(=O)n(CCF)c1ccc(C#CCN3CCCC3)cc21 [Compound I-10, 5-(2-fluoroethyl)-3-methyl-8-(3-pyrrolidin-1-ylprop-1-yn-1-yl)-2,5-dihydro-4H-pyrazolo[4,3-c]quinolin-4-one]
[2]
  IC50: < 0.5 µM

## CCn1c(=O)c2c(C)[nH]nc2c2cc(C#CCN3CCCCC3)ccc21 [Compound I-9, 5-ethyl-3-methyl-8-(3-piperidin-1-ylprop-1-yn-1-yl)-2,5-dihydro-4H-pyrazolo[4,3-c]quinolin-4-one]
[2]
  IC50: < 0.5 µM

## Cc1[nH]nc2c1c(=O)n(CCF)c1ccc(-c3ccc(CN4CCCC4)s3)cc21 [Compound I-47, 5-(2-fluoroethyl)-3-methyl-8-[5-(pyrrolidin-1-ylmethyl)-2-thienyl]-2,5-dihydro-4H-pyrazolo[4,3-c]quinolin-4-one]
[2]
  IC50: < 0.5 µM
